Structures are written as SMILES.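 The compound was tested at five concentrations on cells cultured in 96-well plates, with a 48-hour exposure period. Here, GI50 denotes the concentration required for 50% inhibition of growth. TGI is the concentration that stops growth completely.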

19 compounds from PubChem BioAssay (NCI) can be followed below.

Some test systems named below: HCT-15 colon; NCI-H522 lung; CCRF-CEM leukemia; HOP-62 NSCLC; RPMI-8226 leukemia; SK-MEL-2 melanoma; OVCAR-5 ovarian; HS 578T breast.
Holding throughout (assay): growth of human tumour cells (NCI), 48 h

For `CO/C(=N\N=C\c1cccc(C(F)(F)F)c1)c1ccncc1`, the GI50 was 4.54 µM with HCT-15 colon; 6.41 µM in the assay on NCI-H522 lung; 3.71 µM in the assay with CCRF-CEM leukemia; 13.2 µM with HOP-62 NSCLC; 7.15 µM with RPMI-8226 leukemia; 22.6 µM in the assay on SK-MEL-2 melanoma. Also, the TGI was 68.2 µM with HCT-15 colon; 30.3 µM with NCI-H522 lung; 84.1 µM with CCRF-CEM leukemia; above 100 µM in the assay with HOP-62 NSCLC; 81.9 µM with RPMI-8226 leukemia; above 100 µM with SK-MEL-2 melanoma. Besides, the TGI in the assay on OVCAR-5 ovarian was above 100 µM; in the assay on HS 578T breast it was 38.7 µM.

On to `N#C[C@H]1Nc2ccccc2[C@@H](O)C1O` (some centres undefined), for which the TGI with HCT-15 colon, in the assay on CCRF-CEM leukemia, with HOP-62 NSCLC, in the assay on RPMI-8226 leukemia, in the assay with SK-MEL-2 melanoma and in the assay with OVCAR-5 ovarian was above 100 µM throughout. The TGI with HS 578T breast is above 100 µM.

`COc1ccc2c(c1)[C@@]1(C)CCC3c4ccc(O)cc4CCC3C1C2` (some centres undefined): the GI50 in the assay on HCT-15 colon is 12.3 µM; in the assay with NCI-H522 lung it was 16.4 µM; with CCRF-CEM leukemia, 12.8 µM; in the assay with HOP-62 NSCLC, 22.5 µM; in the assay on RPMI-8226 leukemia it was 14.8 µM; in the assay with OVCAR-5 ovarian, 19 µM. The GI50 in the assay on HS 578T breast is 19.4 µM. Besides, the TGI stood at 28 µM in the assay on HCT-15 colon; 37.6 µM in the assay on NCI-H522 lung; 45.8 µM in the assay on CCRF-CEM leukemia; 37.2 µM in the assay on HOP-62 NSCLC; 39.8 µM with RPMI-8226 leukemia; 33.1 µM in the assay on OVCAR-5 ovarian. Also, the TGI in the assay on HS 578T breast was 39.3 µM.

For `OCc1ccc(Oc2c3ccccc3nc3occc23)cc1`, the GI50 in the assay with HCT-15 colon was 19.4 µM; in the assay with NCI-H522 lung, above 100 µM; with CCRF-CEM leukemia, 31.3 µM; with HOP-62 NSCLC, 30.4 µM; in the assay with RPMI-8226 leukemia, 20.7 µM; in the assay with OVCAR-5 ovarian it was 29.5 µM. Further, the GI50 with HS 578T breast was 54.8 µM. In addition, the TGI with HCT-15 colon was 47.3 µM; in the assay with NCI-H522 lung, above 100 µM; with CCRF-CEM leukemia it was above 100 µM; with HOP-62 NSCLC, above 100 µM; in the assay with RPMI-8226 leukemia, 65.5 µM; with OVCAR-5 ovarian, above 100 µM. For the same compound, the TGI in the assay on HS 578T breast was above 100 µM.

In the case of `Cc1ccc2nc(N/N=C/c3cccc(C)n3)cc(C)c2c1`, the TGI stood at 52.7 µM in the assay on HCT-15 colon; 39.8 µM in the assay with NCI-H522 lung; 36.8 µM in the assay on HOP-62 NSCLC; 42.5 µM in the assay with RPMI-8226 leukemia; 34.8 µM in the assay with SK-MEL-2 melanoma; 28.5 µM in the assay on OVCAR-5 ovarian. Moreover, the TGI in the assay on HS 578T breast was 50.9 µM.

Consider `COc1ccc(-c2csc3c2-n2cccc2C3=O)cc1O`, for which the GI50 is below 0.0132 µM in the assay with HCT-15 colon; below 0.01 µM in the assay on NCI-H522 lung; 0.059 µM with CCRF-CEM leukemia; 0.0578 µM in the assay with HOP-62 NSCLC; 0.0176 µM in the assay with RPMI-8226 leukemia; 1.5 µM in the assay with OVCAR-5 ovarian. For the same compound, the GI50 in the assay with HS 578T breast was below 0.0165 µM. Moreover, the TGI in the assay on HCT-15 colon was above 100 µM; in the assay with NCI-H522 lung it was 0.0434 µM; in the assay with CCRF-CEM leukemia, 0.4 µM; in the assay with HOP-62 NSCLC, above 100 µM; in the assay with RPMI-8226 leukemia, 3.16 µM; with OVCAR-5 ovarian it was above 100 µM. The same compound came in with a TGI in the assay on HS 578T breast above 100 µM.

Turning to `O=[N+]([O-])c1cccc(-c2cc(-c3cc(Br)ccc3O)[nH]n2)c1`, the GI50 is 2.53 µM in the assay on HCT-15 colon; 1.49 µM in the assay with NCI-H522 lung; 3.94 µM in the assay with CCRF-CEM leukemia; 1.47 µM with RPMI-8226 leukemia; 1.99 µM in the assay with SK-MEL-2 melanoma; 3.81 µM in the assay with OVCAR-5 ovarian. In the assay on HS 578T breast, the GI50 was 2.15 µM. Also, the TGI in the assay with HCT-15 colon stood at 12.9 µM; with NCI-H522 lung, 3.66 µM; in the assay on CCRF-CEM leukemia it was 19.9 µM; in the assay on RPMI-8226 leukemia it was 4.75 µM; in the assay with SK-MEL-2 melanoma, 6.53 µM; in the assay with OVCAR-5 ovarian it was 14.9 µM. This compound came in with a TGI in the assay with HS 578T breast of 9.29 µM.

With `NC(=O)NCCSC1CCCCC1O` (centres undefined), the TGI in the assay on HCT-15 colon, with NCI-H522 lung, with HOP-62 NSCLC, in the assay with RPMI-8226 leukemia, in the assay on SK-MEL-2 melanoma and in the assay with OVCAR-5 ovarian was above 100 µM in each case. Also, in the assay on HS 578T breast, the TGI was above 100 µM.

Turning to `C=C1C(=O)O[C@H]2C[C@@H]1CCC1(C)OC1CC/C(C)=C/CC[C@H]2C` (some centres undefined), the GI50 in the assay with HCT-15 colon is 17.3 µM; in the assay on NCI-H522 lung, 37.9 µM; with HOP-62 NSCLC, 18.9 µM; in the assay on RPMI-8226 leukemia, 20.1 µM; in the assay on SK-MEL-2 melanoma, 48.5 µM; with OVCAR-5 ovarian, 15.9 µM. For the same compound, the GI50 with HS 578T breast was 24 µM. In addition, the TGI was 31.1 µM in the assay on HCT-15 colon; above 100 µM in the assay with NCI-H522 lung; 34.5 µM with HOP-62 NSCLC; 41.9 µM with RPMI-8226 leukemia; above 100 µM with SK-MEL-2 melanoma; 30 µM in the assay with OVCAR-5 ovarian. This compound also yielded a TGI in the assay on HS 578T breast of 61 µM.

As to `COc1cc(OC)cc(-c2cncn2-c2ccc(-c3nc4cc(OC)cc(OC)c4s3)cc2)c1`, the GI50 in the assay on NCI-H522 lung was 2.49 µM; in the assay with HOP-62 NSCLC, 6.65 µM; in the assay with SK-MEL-2 melanoma, 9.69 µM; in the assay with OVCAR-5 ovarian, above 100 µM; in the assay with HS 578T breast, 5.02 µM. Also, the TGI is above 100 µM in the assay with NCI-H522 lung; 34.5 µM in the assay on HOP-62 NSCLC; above 100 µM in the assay with SK-MEL-2 melanoma; above 100 µM in the assay on OVCAR-5 ovarian; above 100 µM in the assay on HS 578T breast.

Regarding `CC1(C)N[P+]2(Nc3ccccc3O2)OC1=O` (centres undefined), the TGI in the assay with HCT-15 colon, in the assay with CCRF-CEM leukemia, in the assay with HOP-62 NSCLC, in the assay with RPMI-8226 leukemia, in the assay with OVCAR-5 ovarian and in the assay with HS 578T breast was above 100 µM in each case.

Regarding `Cc1ccc(Oc2nc3ccccc3cc2-c2nnc(Cn3c(COc4ccccc4)nc4ccccc43)o2)cc1`, the GI50 in the assay on HCT-15 colon was 2.14 µM; in the assay on NCI-H522 lung, 6.34 µM; in the assay with CCRF-CEM leukemia, 0.414 µM; with HOP-62 NSCLC it was 2.98 µM; in the assay with RPMI-8226 leukemia, 2.39 µM; with HS 578T breast it was 4.39 µM. For the same compound, the TGI in the assay with HCT-15 colon is 7.69 µM; in the assay on NCI-H522 lung, 21.1 µM; with CCRF-CEM leukemia, 3.74 µM; with HOP-62 NSCLC, 13 µM; in the assay on RPMI-8226 leukemia, 8.45 µM; in the assay on HS 578T breast, 33.8 µM.

In the case of `COc1ccc(-n2c3c(c4c(CN(C)C)c(O)c(C)cc42)CCc2ccccc2C3=O)cc1`, the GI50 was 28.7 µM in the assay on HCT-15 colon; 13.4 µM in the assay on NCI-H522 lung; 40.8 µM in the assay on HOP-62 NSCLC; 15.5 µM in the assay with RPMI-8226 leukemia; 48 µM with SK-MEL-2 melanoma; 35.2 µM in the assay on OVCAR-5 ovarian. The GI50 with HS 578T breast is 48.2 µM. The TGI in the assay with HCT-15 colon was above 100 µM; with NCI-H522 lung it was 50.7 µM; in the assay with HOP-62 NSCLC, above 100 µM; with RPMI-8226 leukemia it was 47 µM; in the assay with SK-MEL-2 melanoma, above 100 µM; with OVCAR-5 ovarian it was above 100 µM. The TGI with HS 578T breast is above 100 µM.

As to `COc1cc2c3c(n(CCCNCCNCCCN)c(=O)c2cc1OC)-c1cc2c(cc1C3=O)OCO2`, the GI50 in the assay on HCT-15 colon was 2.24 µM; with NCI-H522 lung, 0.575 µM; in the assay with HOP-62 NSCLC it was 2.88 µM; with SK-MEL-2 melanoma it was 2.59 µM; in the assay with OVCAR-5 ovarian, 3.82 µM; in the assay on HS 578T breast, 1.38 µM. For the same compound, the TGI in the assay with HCT-15 colon worked out at 20 µM; with NCI-H522 lung, 2.86 µM; in the assay with HOP-62 NSCLC it was 15.6 µM; with SK-MEL-2 melanoma, 10 µM; with OVCAR-5 ovarian, 21.4 µM; in the assay on HS 578T breast, 7.93 µM.

Consider `CC(=O)OC12CC(C)C3(O)C4C=C(C)C(=O)[C@@]4(O)CC(CO)=C[C@H]3C1C2(C)C` (some centres undefined), for which the GI50 with HCT-15 colon, in the assay with NCI-H522 lung, in the assay on RPMI-8226 leukemia, in the assay with SK-MEL-2 melanoma and in the assay with OVCAR-5 ovarian was above 1000 µM in each case. For the same compound, the TGI in the assay on HCT-15 colon, with NCI-H522 lung, with CCRF-CEM leukemia, in the assay with RPMI-8226 leukemia, with SK-MEL-2 melanoma and with OVCAR-5 ovarian was above 1000 µM in each case.

For the compound `CCCCCCCCCCCCCCCCn1cc[n+](Cc2ccccc2)c1C`, the GI50 in the assay with NCI-H522 lung is 0.451 µM; in the assay with CCRF-CEM leukemia, 0.401 µM; with RPMI-8226 leukemia, 0.104 µM; with SK-MEL-2 melanoma, 1.52 µM; in the assay on OVCAR-5 ovarian, 1.48 µM; with HS 578T breast, 3.62 µM. In addition, the TGI with NCI-H522 lung was 1.88 µM; in the assay with CCRF-CEM leukemia, 2.48 µM; in the assay on RPMI-8226 leukemia, 0.444 µM; in the assay on SK-MEL-2 melanoma, 3.26 µM; in the assay with OVCAR-5 ovarian, 3.25 µM; in the assay on HS 578T breast, above 100 µM.

Turning to `O=C(NC1(C(=O)O)CC1c1ccccc1)c1ccccc1` (centres undefined), the TGI in the assay on HCT-15 colon, with NCI-H522 lung, with HOP-62 NSCLC, with RPMI-8226 leukemia, with SK-MEL-2 melanoma and in the assay on OVCAR-5 ovarian was above 100 µM each time. Moreover, the TGI in the assay with HS 578T breast was above 100 µM.

`COc1ccc(-c2nc3sc4c(c3c(=O)[nH]2)CCCC4)c2ccccc12`: the TGI was above 100 µM in the assay on HCT-15 colon; 0.0179 µM with NCI-H522 lung; above 100 µM in the assay on CCRF-CEM leukemia; above 100 µM in the assay on RPMI-8226 leukemia; 4.59 µM in the assay with OVCAR-5 ovarian; 0.093 µM with HS 578T breast. The GI50 is 0.629 µM in the assay on HOP-62 NSCLC and 0.301 µM with OVCAR-5 ovarian.

`NC1=NC(c2ccc(F)cc2)C2=C(N1)c1ccc3ccccc3c1OCC2` (centres undefined): the GI50 with HCT-15 colon was 3.25 µM; in the assay on NCI-H522 lung it was above 100 µM; in the assay with HOP-62 NSCLC, 23.5 µM; in the assay on SK-MEL-2 melanoma, above 100 µM; in the assay on OVCAR-5 ovarian it was above 100 µM; in the assay with HS 578T breast, 11.4 µM. Also, the TGI in the assay with HCT-15 colon, in the assay with NCI-H522 lung, in the assay with HOP-62 NSCLC, in the assay on SK-MEL-2 melanoma, in the assay on OVCAR-5 ovarian and with HS 578T breast was above 100 µM in each case.
